Measurements taken from patent US9814734B2, “Bufalin liposome, preparation method therefor and application thereof” (THE FOURTH MILITARY MEDICAL UNIVERSITY, priority 2012, dated 2017).

Experiments:
Assay in all cases: Growth inhibition on tumor cells (MTT)
Assay type in all cases: cell-based
lung cancer A549 cells = settings: Homo sapiens
Method: (§1) The cells of human cervical carcinoma Hela, lung cancer A549, gastric cancer SGC7901, liver cancer HepG2, myeloid leukemia HL-60 and colon cancer SW1116 are cultured in DMEM or RPMI 1640 medium (containing 10% inactived fetal bovine serum, 100 U·ml^−1 penicillin and 100 mg·l^−1 streptomycin) in a humidified 5% CO2 atmosphere at […]. The cells in logarithmic phase are collected, inoculated into 96-well plate at a density of 3×10^3/well (each well of 100 μl), and cultured for 24 h under 37° C., 5% CO2 and saturated humidity condition. A negative control group (culture solution) and administration groups with different concentrations are set up for the test. 1-300 nmol/1 bufalin or bufalin liposome (prepared according to the method of Example 1) is added into each culture well, followed by culturing in an incubator under 37° C., 5% CO2 and saturated humidity for 48 h, adding 20 μl of MTT solution (5 g/l) into each well, culturing for 4 h, and centrifuging. The supernatant was aspirated, and 150 μl dimethyl sulfoxide (DMSO) is added to each well and slightly shaking to dissolve crystal. The OD values are measured at 570 nm by an automatic microplate reader, and the cell growth inhibition rates are calculated according to following formula: cell growth inhibition rate/%=100−(OD value of administration group-OD value of blank control group)/(OD value of control group-OD value of bland control group)×100. IC50 (drug concentration at 50% inhibition on cell proliferation) value is calculated using mathematical method. Data are expressed as X±SEM. Statistical significance (P<0.05) for each variable is estimated by Student's t-test or ANOVA analysis.

[1] = system: gastric cancer SGC7901 cells; settings: Homo sapiens
Method: as §1

[2] = system: human cervical carcinoma Hela cells; settings: 48 h
Method: as §1

[3] = system: myeloid leukemia HL-60 cells; settings: Homo sapiens
Method: as §1

liver cancer HepG2 cells = settings: Homo sapiens
Method: as §1

C[C@]12CC[C@H](O)C[C@H]1CC[C@@H]1[C@@H]2CC[C@]2(C)[C@@H](c3ccc(=O)oc3)CC[C@]12O [bufalin, 3β,14-dihydroxy-5β, 20(22)-bufadienolide]
inhibition at 0.001 µM (lung cancer A549 cells; A549, 1 nmol/l, 48 h, read-out: Inhibition rate (%)): 2 ± 0.2% | inhibition at 0.003 µM (lung cancer A549 cells; A549, 3 nmol/l, 48 h, read-out: Inhibition rate (%)): 8.5 ± 1% | inhibition at 0.01 µM (lung cancer A549 cells; A549, 10 nmol/l, 48 h, read-out: Inhibition rate (%)): 25.3 ± 3.8% | inhibition at 0.03 µM (lung cancer A549 cells; A549, 30 nmol/l, 48 h, read-out: Inhibition rate (%)): 44.2 ± 7.1% | inhibition at 0.1 µM (lung cancer A549 cells; A549, 100 nmol/l, 48 h, read-out: Inhibition rate (%)): 52.3 ± 8.3% | inhibition at 0.3 µM (lung cancer A549 cells; A549, 300 nmol/l, 48 h, read-out: Inhibition rate (%)): 63.8 ± 7.9% | IC50 (lung cancer A549 cells; A549, 48 h): 78.8 nM | inhibition at 0.001 µM ([1]; SGC-7901, 1 nmol/l, 48 h, read-out: Inhibition rate (%)): 3.1 ± 0.5% | inhibition at 0.003 µM ([1]; SGC-7901, 3 nmol/l, 48 h, read-out: Inhibition rate (%)): 3.9 ± 0.8% | inhibition at 0.01 µM ([1]; SGC-7901, 10 nmol/l, 48 h, read-out: Inhibition rate (%)): 23.7 ± 3.6% | inhibition at 0.03 µM ([1]; SGC-7901, 30 nmol/l, 48 h, read-out: Inhibition rate (%)): 45.9 ± 6.5% | inhibition at 0.1 µM ([1]; SGC-7901, 100 nmol/l, 48 h, read-out: Inhibition rate (%)): 85.6 ± 10.2% | inhibition at 0.3 µM ([1]; SGC-7901, 300 nmol/l, 48 h, read-out: Inhibition rate (%)): 97.9 ± 11.3% | IC50 ([1]; SGC-7901, 48 h): 23.5 nM | inhibition at 0.001 µM ([2]; 1 nmol/l, read-out: Inhibition rate (%)): 3.8 ± 2% | inhibition at 0.003 µM ([2]; 3 nmol/l, read-out: Inhibition rate (%)): 9.6 ± 8.2% | inhibition at 0.01 µM ([2]; 10 nmol/l, read-out: Inhibition rate (%)): 33.9 ± 4.5% | inhibition at 0.03 µM ([2]; 30 nmol/l, read-out: Inhibition rate (%)): 56.3 ± 8.2% | inhibition at 0.1 µM ([2]; 100 nmol/l, read-out: Inhibition rate (%)): 90.3 ± 10.7% | inhibition at 0.3 µM ([2]; 300 nmol/l, read-out: Inhibition rate (%)): 95.1 ± 6.9% | IC50 [2]: 17.1 nM | inhibition at 0.001 µM ([3]; HL60, 1 nmol/l, 48 h, read-out: Inhibition rate (%)): 1.6 ± 0.1% | inhibition at 0.003 µM ([3]; HL60, 3 nmol/l, 48 h, read-out: Inhibition rate (%)): 4.4 ± 0.7% | inhibition at 0.01 µM ([3]; HL60, 10 nmol/l, 48 h, read-out: Inhibition rate (%)): 33.8 ± 6.1% | inhibition at 0.03 µM ([3]; HL60, 30 nmol/l, 48 h, read-out: Inhibition rate (%)): 52.4 ± 8% | inhibition at 0.1 µM ([3]; HL60, 100 nmol/l, 48 h, read-out: Inhibition rate (%)): 88.7 ± 9.8% | inhibition at 0.3 µM ([3]; HL60, 300 nmol/l, 48 h, read-out: Inhibition rate (%)): 98 ± 10.2% | IC50 ([3]; HL60, 48 h): 21.1 nM | inhibition at 0.001 µM (liver cancer HepG2 cells; HepG2, 1 nmol/l, 48 h, read-out: Inhibition rate (%)): 5.3 ± 2.2% | inhibition at 0.003 µM (liver cancer HepG2 cells; HepG2, 3 nmol/l, 48 h, read-out: Inhibition rate (%)): 6.1 ± 2.3% | inhibition at 0.01 µM (liver cancer HepG2 cells; HepG2, 10 nmol/l, 48 h, read-out: Inhibition rate (%)): 30.2 ± 2.9% | inhibition at 0.03 µM (liver cancer HepG2 cells; HepG2, 30 nmol/l, 48 h, read-out: Inhibition rate (%)): 49.8 ± 8.3% | inhibition at 0.1 µM (liver cancer HepG2 cells; HepG2, 100 nmol/l, 48 h, read-out: Inhibition rate (%)): 69.8 ± 7.5% | inhibition at 0.3 µM (liver cancer HepG2 cells; HepG2, 300 nmol/l, 48 h, read-out: Inhibition rate (%)): 87.7 ± 9.6% | IC50 (liver cancer HepG2 cells; HepG2, 48 h): 33 nM
